# Test results published in publication PMC11998009, “Identification of a New FtsZ Inhibitor by Virtual Screening, Mechanistic Insights, and Structure–Activity Relationship Analyses” (ACS Infectious Diseases, 2025).
# pIC50: −log10 of the molar value. Read-outs that look alike come from different tables or passages of the source.
# Columns and labels:
# S. aureus ATCC25923 [1] = assay: MIC determination by 2-fold microdilution, resazurin method; assay type: cell-based, Staphylococcus aureus; details: S. aureus ATCC25923, single drug
# [2] = molecular target: T1, S. aureus FtsZ protein (FtsZSa) (Staphylococcus aureus, UniProt P0A031); assay: In vitro FtsZ GTPase activity (PK/LDH coupled assay); assay type: biochemical; parameters: Residual GTPase activity: concentration or dose not given beside the values
# T1 construct: made in house; host or cells: Escherichia coli BL21DE3
# T1 sequence (P0A031 1-390): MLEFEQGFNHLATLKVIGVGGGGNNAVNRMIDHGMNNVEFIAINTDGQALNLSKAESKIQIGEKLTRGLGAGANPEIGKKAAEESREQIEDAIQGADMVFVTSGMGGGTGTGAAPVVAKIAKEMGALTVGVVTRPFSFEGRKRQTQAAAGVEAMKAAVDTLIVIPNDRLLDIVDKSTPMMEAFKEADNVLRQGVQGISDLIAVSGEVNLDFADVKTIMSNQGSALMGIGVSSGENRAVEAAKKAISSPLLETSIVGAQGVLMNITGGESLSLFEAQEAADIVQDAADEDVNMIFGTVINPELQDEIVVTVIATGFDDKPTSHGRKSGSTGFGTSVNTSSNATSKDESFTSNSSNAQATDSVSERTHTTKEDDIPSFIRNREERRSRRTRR
# Procedure: In vitro FtsZ GTPase activity
# FtsZSa and FtsZPa were expressed and purified as previously described.13,14 GTPase activity was assayed at 30°C using a pyruvate kinase–L-lactic dehydrogenase (PK/LDH) spectrophotometric coupled assay, as previously described15 with minor modification. The reaction mixture was first set up to contain 50 mM MES […]
# phosphoenolpyruvate, and 4.8 μM of FtsZ. The assay was initiated by the addition of 1 mM GTP. The experiments were performed in triplicate. The inhibitory concentration that reduced the enzymatic activity by half (IC50) was determined using Prism 10. […]
# [3] = tested on: S. aureus cystic fibrosis clinical isolates; assay: MIC for CF clinical isolates; assay type: cell-based
# S. aureus ATCC25923 [4] = assay: Time-killing curve; assay type: cell-based
# Procedure: (§1) page 19: […] MIC method. […] The cultures were incubated at 37°C, and aliquots were […] Serial dilutions were spread on LB solid medium and the plates were incubated at 37°C O/N. Then, the number of colonies was determined. Killing curves were constructed by plotting the log10 CFU/ml vs. time. Bactericidal activity was defined as a reduction of 99.9% (≥3 log 10) of the total number of CFU/ml in the original inoculum (NCCLS, 1999). Bacteriostatic activity was defined as maintenance of the original inoculum concentration or a reduction of less than 99.9% (<3 log10) of the total number of CFU/ml in the original inoculum. Live cell imaging experiments […] Cells were diluted to OD of 0.02 in fresh TSB containing in the case of strain TD276 anhydrotetracycline 0.4 μM to induce the expression of mCherryFtsZ. After 1 hour of incubation at 37°C 2 μl of the culture was spotted onto an agar pad prepared with TSB and […] For time-lapse microscopy experiments, an inverted widefield microscope (Leica DMi8S) equipped with a 100× oil immersion objective (HC PL FLUOTAR 100x/1.32 OIL) was used. […] Images were recorded at 15-min intervals and up to 5 h. Bacteria were visualized in phase- contrast and fluorescence with the required parameters. […] S. aureus […] in fluorescence (with the required parameters for Hoechst and mCherry) using a 160x objective (HC PL APO S19
# S. aureus ATCC25923 [5] = assay: Single-cell time-lapse microscopy, cell area; assay type: cell-based; details: 2 × MIC (4 μg/mL), 5 h
# Procedure: as §1
# [6] = tested on: S. aureus ATCC25923 biofilms; assay: Biofilm eradication assay (CFU counting, CLSM); assay type: cell-based
# G. mellonella = assay: Toxicity in uninfected G. mellonella larvae; assay type: in vivo, Galleria mellonella; details: 40 mg/kg
# K. pneumoniae ATCC13883 = assay: MIC / checkerboard with PaβN; assay type: cell-based
# A. baumannii ATCC19606 = assay: MIC / checkerboard with PaβN; assay type: cell-based
# S. aureus ATCC25923 [7] = assay: Galleria mellonella infection model
# FtsZSa = molecular target: T2, FtsZSa (Staphylococcus aureus, UniProt P0A031); assay: FtsZSa polymerization, 90° light scattering
# T2 sequence (P0A031 1-390): T1 sequence (P0A031 1-390)
smiles,measurement,setting,value
COc1ccc(Cc2nnc(SC3=CS(=O)(=O)c4ccccc43)o2)cc1 [C11],MIC S. aureus,S. aureus ATCC25923 [1],2 µg/mL
same,MIC,S. aureus ATCC25923 [1]; Staphylococcus aureus,2 µg/mL
same,Effect on FtsZSa GTPase activity,[2],did not affect the FtsZSa GTPase activity
same,Residual GTPase activity,[2]; S. aureus FtsZ protein,82.2%
same,MIC,"[3]; S. aureus BG8 MRSA, single drug",2 µg/mL
same,MIC,"[3]; S. aureus BG9 MRSA, single drug",2 µg/mL
same,MIC,"[3]; S. aureus BG10 MRSA, single drug",2 µg/mL
same,MIC,"[3]; Staphylococcus aureus, MRSA, S. aureus BG6 MRSA, read-out: MIC",2 µg/mL
same,MIC,"[3]; Staphylococcus aureus, MRSA, S. aureus BG7 MRSA smv, read-out: MIC",4 µg/mL
same,MIC,"[3]; Staphylococcus aureus, MRSA, S. aureus BG8 MRSA, single drug, read-out: MIC",2 µg/mL
same,MIC,"[3]; Staphylococcus aureus, MRSA, S. aureus BG9 MRSA, single drug, read-out: MIC",2 µg/mL
same,MIC,"[3]; Staphylococcus aureus, MRSA, S. aureus BG10 MRSA, single drug, read-out: MIC",2 µg/mL
same,MIC,"[3]; Staphylococcus aureus, S. aureus BG1, read-out: MIC",2 µg/mL
same,MIC,"[3]; Staphylococcus aureus, S. aureus BG2, read-out: MIC",4 µg/mL
same,MIC,"[3]; Staphylococcus aureus, S. aureus BG3, read-out: MIC",4 µg/mL
same,MIC,"[3]; Staphylococcus aureus, S. aureus BG4, read-out: MIC",8 µg/mL
same,MIC,"[3]; Staphylococcus aureus, S. aureus BG5, read-out: MIC",8 µg/mL
same,MIC,"[3]; Staphylococcus aureus, S. aureus SA1, read-out: MIC",4 µg/mL
same,MIC,"[3]; Staphylococcus aureus, S. aureus SA2, read-out: MIC",4 µg/mL
same,MIC,"[3]; Staphylococcus aureus, S. aureus SA3, read-out: MIC",2 µg/mL
same,MIC,"[3]; Staphylococcus aureus, S. aureus SA4, read-out: MIC",2 µg/mL
same,MIC,"[3]; Staphylococcus aureus, S. aureus SA5, read-out: MIC",4 µg/mL
same,MIC,"[3]; Staphylococcus aureus, S. aureus SA6, read-out: MIC",2 µg/mL
same,MIC,"[3]; Staphylococcus aureus, S. aureus SA7, read-out: MIC",2 µg/mL
same,MIC,"[3]; Staphylococcus aureus, S. aureus SA8, read-out: MIC",2 µg/mL
same,MIC,"[3]; Staphylococcus aureus, S. aureus SA9, read-out: MIC",4 µg/mL
same,MIC,"[3]; Staphylococcus aureus, S. aureus SA10, read-out: MIC",2 µg/mL
same,MIC,"[3]; Staphylococcus aureus, S. aureus SA11, read-out: MIC",4 µg/mL
same,MIC,"[3]; Staphylococcus aureus, S. aureus SA12, read-out: MIC",4 µg/mL
same,MIC,"[3]; Staphylococcus aureus, S. aureus SA13, read-out: MIC",4 µg/mL
same,MIC,"[3]; Staphylococcus aureus, S. aureus SA14, read-out: MIC",2 µg/mL
same,MIC,"[3]; Staphylococcus aureus, S. aureus SA15, read-out: MIC",4 µg/mL
same,MIC,"[3]; Staphylococcus aureus, S. aureus SA16, read-out: MIC",4 µg/mL
same,MIC,"[3]; Staphylococcus aureus, S. aureus SA17, read-out: MIC",2 µg/mL
same,MIC,"[3]; Staphylococcus aureus, S. aureus SA18, read-out: MIC",4 µg/mL
same,MIC,"[3]; Staphylococcus aureus, S. aureus SA19, read-out: MIC",2 µg/mL
same,MIC,"[3]; Staphylococcus aureus, S. aureus SA20, read-out: MIC",4 µg/mL
same,MIC,"[3]; Staphylococcus aureus, S. aureus SA21, read-out: MIC",2 µg/mL
same,MIC,"[3]; Staphylococcus aureus, S. aureus SA22, read-out: MIC",2 µg/mL
same,MIC,"[3]; Staphylococcus aureus, S. aureus SA23, read-out: MIC",4 µg/mL
same,MIC,"[3]; Staphylococcus aureus, S. aureus SA24, read-out: MIC",2 µg/mL
same,MIC,"[3]; Staphylococcus aureus, S. aureus SA25, read-out: MIC",2 µg/mL
same,MIC,"[3]; Staphylococcus aureus, panel of clinical isolates from cystic fibrosis patients, read-out: MIC values for the vast majority of the clinical isolates",2 to 4 µg/mL
same,Time-kill effect,"S. aureus ATCC25923 [4]; 1- or 2-fold the MIC, 24 h",Bacteriostatic effect
same,Time-kill effect,S. aureus ATCC25923 [4]; half of the MIC,slight regrowth
same,Area of the cells compared to untreated cells,S. aureus ATCC25923 [5],significantly larger
same,"Biofilm eradication, viable cells by CFU counting","[6]; 2 × MIC, 4 μg/mL, 24 h treatment",reduce the number of viable cells
same,Biofilm eradication by CLSM,"[6]; increasing concentrations (4, 8, 16 μg/ml)",eradicating the majority of the attached cells
same,"Toxicity for G. mellonella (survival of not infected, treated larvae)",G. mellonella,not toxic
same,MIC,"K. pneumoniae ATCC13883; K. pneumoniae ATCC13883, C11 alone",≥ 128 µg/mL
same,MIC,"K. pneumoniae ATCC13883; Klebsiella pneumoniae, ATCC13883, K. pneumoniae ATCC13883, + PaβN […], read-out: MIC",8 µg/mL
same,MIC,"K. pneumoniae ATCC13883; Klebsiella pneumoniae, ATCC13883, K. pneumoniae ATCC13883, C11 alone, read-out: MIC",≥ 128 µg/mL
same,MIC,"A. baumannii ATCC19606; A. baumannii ATCC19606, C11 alone",≥ 128 µg/mL
same,MIC,"A. baumannii ATCC19606; Acinetobacter baumannii, ATCC19606, A. baumannii ATCC19606, + PaβN 64 µg/ml, read-out: MIC",1 µg/mL
same,MIC,"A. baumannii ATCC19606; Acinetobacter baumannii, ATCC19606, A. baumannii ATCC19606, C11 alone, read-out: MIC",≥ 128 µg/mL
same,Survival rate of infected larvae,"S. aureus ATCC25923 [7]; 40 mg/kg 2 h after infection, 2 days postinfection, DMSO group 46%",77%
same,Survival rate of infected larvae,"S. aureus ATCC25923 [7]; 40 mg/kg, after 6 days",significantly higher than the mock-treated group
same,Survival rate of infected larvae,"S. aureus ATCC25923 [7]; 40 mg/kg, three days postinfection, DMSO group 32%",58%
same,pIC50,FtsZSa,4.32
